≈ marks a conversion by molar mass, not a printed value. Calls of active or inactive are those of the source. The rule behind the calls is not given here.

Experiment [1] concerns Pseudomonas aeruginosa. The experiment is described as follows: Antibacterial activity against Pseudomonas aeruginosa by dilution assay. The format is functional.
Experiment [2] relates to Staphylococcus aureus. Put plainly: Antibacterial activity against Staphylococcus aureus by dilution assay. In kind it is functional.
For experiment [3], the target named is T1, Enoyl-[acyl-carrier-protein] reductase [NADH] (Mycobacterium tuberculosis) (UniProt P9WGR1).
T1 sequence (whole entry): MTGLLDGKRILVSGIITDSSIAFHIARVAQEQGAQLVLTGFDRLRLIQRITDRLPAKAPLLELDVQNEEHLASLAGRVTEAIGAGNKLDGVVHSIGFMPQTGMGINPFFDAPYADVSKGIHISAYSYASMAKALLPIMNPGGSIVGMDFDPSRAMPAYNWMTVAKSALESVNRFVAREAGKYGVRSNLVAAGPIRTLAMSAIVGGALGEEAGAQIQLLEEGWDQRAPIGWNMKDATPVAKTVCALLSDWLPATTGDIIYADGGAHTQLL
Put plainly: Inhibition of Mycobacterium tuberculosis H37Rv ATCC 27294 InhA assessed as bacterial growth inhibition after 5 days by microplate alamar blue assay. On the technique in general: The colour change of resazurin is a common sign of viable cells or microbes.

The subject of experiment [4] is Escherichia coli. Put plainly: Antibacterial activity against Escherichia coli by dilution assay. The format is functional.

As to `N#Cc1ccc(Cn2cc(COC(=O)c3cnccn3)nn2)cc1`, the MIC turned out to be 25 µg/mL (≈ 78 µM) in experiment [1], 12.5 µg/mL (≈ 39 µM) in experiment [2], 9.74 µM (≈ 3.12 µg/mL) in experiment [3] and 50 µg/mL (≈ 156 µM) in experiment [4].
`O=C(O)c1cn(C2CC2)c2cc(N3CCNCC3)c(F)cc2c1=O` [CIPROFLOXACIN]: the MIC in experiment [1] stood at 4 µg/mL (≈ 12.1 µM); in experiment [2], 2 µg/mL (≈ 6.04 µM); in experiment [3], 9.41 µM (≈ 3.12 µg/mL).
Consider `Cc1ccc(Cn2cc(CSc3nnc(-c4cnccn4)o3)nn2)cc1`, for which the MIC in experiment [1] was 25 µg/mL (≈ 68.4 µM); in experiment [2] it was 12.5 µg/mL (≈ 34.2 µM); in experiment [3] it was 8.53 µM (≈ 3.12 µg/mL); in experiment [4], 12.5 µg/mL (≈ 34.2 µM).
For `O=C(OCc1cn(Cc2ccc(F)cc2)nn1)c1cccnc1`, the figures for the MIC in experiment [1], in experiment [2] and in experiment [3] were 50 µg/mL (≈ 160 µM), 50 µg/mL (≈ 160 µM) and over 100 µM, respectively. Also, the MIC result in experiment [4] was “inactive”.
For `O=C(OCc1cn(Cc2ccccc2F)nn1)c1cccnc1`, the MIC in experiment [1] was 50 µg/mL (≈ 160 µM); in experiment [2], 50 µg/mL (≈ 160 µM); in experiment [3], 80 µM (≈ 25 µg/mL); in experiment [4], 25 µg/mL (≈ 80.1 µM).
As to `Fc1ccc(Cn2cc(CSc3nnc(-c4cccnc4)o3)nn2)cc1`, the MIC entry in experiment [1] and in experiment [4] was “inactive” throughout. The MIC is 50 µg/mL (≈ 136 µM) in experiment [2] and over 100 µM in experiment [3].
Regarding `FC(F)(F)c1ccc(Cn2cc(CSc3nnc(-c4cnccn4)o3)nn2)cc1`, the MIC in experiment [1] amounted to 25 µg/mL (≈ 59.6 µM); in experiment [2] it was 25 µg/mL (≈ 59.6 µM); in experiment [3], 59.6 µM (≈ 25 µg/mL); in experiment [4] it was 25 µg/mL (≈ 59.6 µM).
In the case of `O=C(OCc1cn(Cc2ccccc2F)nn1)c1ccccc1`, the MIC in experiment [1] was determined as 50 µg/mL (≈ 161 µM); in experiment [2], 25 µg/mL (≈ 80.3 µM); in experiment [3], 80.3 µM (≈ 25 µg/mL); in experiment [4], 25 µg/mL (≈ 80.3 µM).
Consider `O=[N+]([O-])c1ccc(Cn2cc(CSc3nnc(-c4cnccn4)o3)nn2)cc1`, for which the MIC in experiment [1] came to 25 µg/mL (≈ 63.1 µM); in experiment [2], 12.5 µg/mL (≈ 31.5 µM); in experiment [3], 15.8 µM (≈ 6.25 µg/mL). For the same molecule, the MIC result in experiment [4] is “inactive”.
For `O=C(OCc1cn(Cc2ccc(C(F)(F)F)cc2)nn1)c1ccccc1`, in that order: “inactive”, 50 µg/mL (≈ 138 µM), over 100 µM and “inactive”.
For `Cc1ccc(Cn2cc(CSc3nnc(-c4cccnc4)o3)nn2)cc1` the same measures were 225 µg/mL (≈ 617 µM), 12.5 µg/mL (≈ 34.3 µM), 34.3 µM (≈ 12.5 µg/mL) and 252 µg/mL (≈ 691 µM).
For `O=C(OCc1cn(Cc2ccc([N+](=O)[O-])cc2)nn1)c1ccccc1`, the MIC result in experiment [1] and in experiment [4] was “inactive” throughout. Also, the results for the MIC in experiment [2] and in experiment [3] were 50 µg/mL (≈ 148 µM) and over 100 µM, respectively.
Turning to `O=C(NCc1cn(Cc2ccccc2F)nn1)c1cnccn1`, the MIC in experiment [1] was determined as 12.5 µg/mL (≈ 40 µM); in experiment [2] it was 6.25 µg/mL (≈ 20 µM); in experiment [3], 9.99 µM (≈ 3.12 µg/mL); in experiment [4] it was 12.5 µg/mL (≈ 40 µM).
On to `O=C(OCc1cn(Cc2ccc([N+](=O)[O-])cc2)nn1)c1cnccn1`, for which the MIC in experiment [1] is 50 µg/mL (≈ 147 µM); in experiment [2], 25 µg/mL (≈ 73.5 µM); in experiment [3] it was 18.4 µM (≈ 6.25 µg/mL); in experiment [4] it was 25 µg/mL (≈ 73.5 µM).
As to `O=[N+]([O-])c1ccc(Cn2cc(CSc3nnc(-c4cccnc4)o3)nn2)cc1`, the MIC in experiment [1] worked out at 25 µg/mL (≈ 63.2 µM); in experiment [2], 25 µg/mL (≈ 63.2 µM); in experiment [3], 63.2 µM (≈ 25 µg/mL); in experiment [4], 50 µg/mL (≈ 126 µM).
`O=C(OCc1cn(Cc2ccc(F)cc2)nn1)c1ccccc1`: the MIC in experiment [1] worked out at 25 µg/mL (≈ 80.3 µM); in experiment [2] it was 25 µg/mL (≈ 80.3 µM); in experiment [3] it was 80.3 µM (≈ 25 µg/mL); in experiment [4] it was 50 µg/mL (≈ 161 µM).
For the molecule `O=C(NCc1cn(Cc2ccc(C(F)(F)F)cc2)nn1)c1ccccc1`, the MIC in experiment [1] was 25 µg/mL (≈ 69.4 µM); in experiment [2], 50 µg/mL (≈ 139 µM); in experiment [3], over 100 µM. The MIC result in experiment [4] was “inactive”.
On to `CN[C@@H]1[C@H](O[C@H]2[C@H](O[C@H]3[C@H](O)[C@@H](O)[C@H](N=C(N)N)[C@@H](O)[C@@H]3N=C(N)N)O[C@@H](C)[C@]2(O)C=O)O[C@@H](CO)[C@H](O)[C@H]1O`, for which the MIC in experiment [3] was found to be 11.7 µM (≈ 6.83 µg/mL).
With `O=C(OCc1cn(Cc2ccc(F)cc2)nn1)c1cnccn1`, the MIC in experiment [1] came to 25 µg/mL (≈ 79.8 µM); in experiment [2] it was 12.5 µg/mL (≈ 39.9 µM); in experiment [3], 9.95 µM (≈ 3.12 µg/mL); in experiment [4], 12.5 µg/mL (≈ 39.9 µM).
With `N#Cc1ccc(Cn2cc(COC(=O)c3cccnc3)nn2)cc1`, the MIC in experiment [1] came out at 50 µg/mL (≈ 157 µM); in experiment [2], 25 µg/mL (≈ 78.3 µM); in experiment [3] it was 78.3 µM (≈ 25 µg/mL); in experiment [4], 50 µg/mL (≈ 157 µM).
Consider `Fc1ccccc1Cn1cc(CSc2nnc(-c3cnccn3)o2)nn1`, for which the MIC result in experiment [1] and in experiment [4] was “inactive” each time. Besides, the MIC in experiment [2] was 50 µg/mL (≈ 135 µM); in experiment [3] it was over 100 µM.

Values taken from ChEMBL document CHEMBL4602648, “The bioisosteric modification of pyrazinamide derivatives led to potent antitubercular agents: Synthesis via click approach and molecular docking of pyrazine-1,2,3-triazoles” (Bioorg Med Chem Lett, 2020).
